Read-outs that look alike come from different tables or passages of the source.
Experiments:
[1] = tested on: complex primary human cell systems; experiment: BioMAP Diversity PLUS phenotypic panel; assay type: cell-based; conditions: hydroxychloroquine at 33 µM versus Pyronaridine at 3.3 µM
Description: Pyronaridine was profiled in the BioMAP® Diversity PLUS (BioSeek LLC, South San Francisco, CA) panel comprised of a well characterized set of complex primary human cell systems at 10, 3.3, 1.1, and 0.3 µM. Pyronaridine was tested across 12 BioMAP® Systems containing early passage primary human cells cultured alone or as cocultures and stimulated with various proinflammatory or immunomodulatory stimuli. […] A BioMAP activity profile was generated based on the levels of various readout parameters including cytokines or growth factors, expression of surface molecules, and cell proliferation. […]
Differentiating biomarkers are defined when one profile has a readout outside of the significance envelope with an effect size > 20% (|log10 ratio| > 0.1), and the readout for the other profile is either inside the envelope or in the opposite direction.

[2] = target: T1, TLR7 (Homo sapiens, UniProt Q9NYK1); experiment: HEK293 TLR7/NFKb reporter cell assay with R848 agonist; assay type: cell-based; set-up: expressed in transfected cells; host or cells: HEK293
T1 sequence (Q9NYK1 27-1049): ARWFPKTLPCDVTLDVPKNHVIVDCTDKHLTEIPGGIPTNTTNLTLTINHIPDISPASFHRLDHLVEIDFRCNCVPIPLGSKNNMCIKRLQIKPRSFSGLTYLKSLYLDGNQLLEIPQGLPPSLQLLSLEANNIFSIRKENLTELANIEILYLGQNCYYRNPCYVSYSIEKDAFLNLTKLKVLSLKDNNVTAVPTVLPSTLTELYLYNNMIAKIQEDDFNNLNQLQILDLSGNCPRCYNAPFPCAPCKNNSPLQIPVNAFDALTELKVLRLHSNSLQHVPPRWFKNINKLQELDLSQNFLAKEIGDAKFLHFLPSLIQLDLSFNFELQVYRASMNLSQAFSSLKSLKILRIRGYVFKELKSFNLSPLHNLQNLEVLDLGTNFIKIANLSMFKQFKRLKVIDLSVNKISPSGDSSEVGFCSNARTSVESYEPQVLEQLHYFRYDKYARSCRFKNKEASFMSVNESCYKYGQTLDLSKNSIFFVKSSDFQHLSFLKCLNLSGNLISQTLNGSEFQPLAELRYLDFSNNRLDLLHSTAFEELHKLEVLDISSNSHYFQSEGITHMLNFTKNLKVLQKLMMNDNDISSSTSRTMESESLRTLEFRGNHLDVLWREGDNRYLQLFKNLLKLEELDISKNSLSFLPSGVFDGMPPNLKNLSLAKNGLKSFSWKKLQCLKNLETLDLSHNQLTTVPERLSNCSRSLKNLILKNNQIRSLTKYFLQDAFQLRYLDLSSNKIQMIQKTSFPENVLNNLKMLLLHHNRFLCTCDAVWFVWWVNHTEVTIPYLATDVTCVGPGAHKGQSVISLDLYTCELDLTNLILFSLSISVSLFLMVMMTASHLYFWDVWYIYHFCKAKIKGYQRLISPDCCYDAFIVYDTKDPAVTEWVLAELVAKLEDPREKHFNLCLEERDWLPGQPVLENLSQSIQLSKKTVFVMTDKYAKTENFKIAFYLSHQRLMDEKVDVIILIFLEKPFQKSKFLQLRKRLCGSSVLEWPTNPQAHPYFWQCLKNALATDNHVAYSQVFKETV
Description: Into 384 CulturePlates (Corning 3707) was placed 5000 c/w of HEK293 TLR7/NFKb reporter cells in 30 µL DMEM without phenol red and 10% i.a. FCS and 2 mM L-glutamine. The cells were incubated for 24 h at 37° C., 10% carbon dioxide and 90% relative humidity. 3 µL of controls, standards, and compounds were dispensed to wells, incubated for 30 min then 3 µL of R848 agonist (Resiquimod) in 20 mM HEPES buffer was added. After incubation for 5 hours, it was allowed to stand at room temperature for 15 min. 10 µL of Steady-Glo substrate reagent was added and assay plates were shaken for 5 min at 1500 rpm. The assay plate was allowed to sit for 30 min at room temperature and then read on an EnVision plate reader.

| IC50 ([2]; Example 4 results table, assay/readout not specified, read-out: Potency) [µM] | IC50 ([2]; HEK293 TLR7/NFKb reporter cells, R848 agonist, read-out: IC50 TLR7 (IL6 READOUT) HEK TRANSFECTED) [µM] | Compound | BioMAP Diversity PLUS profile, overlay comparison [1] |
| --- | --- | --- | --- |
| – | – | CCN(CCO)CCCC(C)Nc1ccnc2cc(Cl)ccc12 (stereo not drawn) [HYDROXY-CHLOROQUINE HCQ, hydroxychloroquine] | noticeable similar pattern |
| < 1 | 5 | COc1ccc2nc3cc(Cl)ccc3c(Nc3cc(CN4CCCC4)c(O)c(CN4CCCC4)c3)c2n1 [Compound 1, Pyronaridine] | – |

— patent publication US20230301981A1, “TLR7/8 ANTAGONISTS AND USES THEREOF” (Merck Patent GmbH, priority 2020, published 2023)
